The NIST ThermoML archive (doi:10.1016/j.jct.2010.11.013)
± gives the expanded uncertainty stated by the source.

Experiments:
[1] = 298.15 K; 101.33 kPa; Liquid; Vibrating tube method
[2] = refractive index (Na D-line) (dimensionless); conditions: 298.15 K; 101.33 kPa; Liquid; Standard Abbe refractometry

| mass density [1] | refractive index [2] | Compound |
| --- | --- | --- |
| 1237.23 ± 0.43 kg/m3 | 1.4791 ± 0.0007 | CCOS(=O)(=O)[O-].CCn1cc[n+](C)c1 [1-ethyl-3-methylimidazolium ethyl sulfate] |
| 679.56 ± 0.19 kg/m3 | 1.38515 ± 0.00068 | CCCCCCC [heptane] |
| 655.19 ± 0.26 kg/m3 | 1.37234 ± 0.0007 | CCCCCC [hexane] |
| 713.99 ± 0.25 kg/m3 | 1.40326 ± 0.0007 | CCCCCCCCC [nonane] |
| 698.6 ± 0.18 kg/m3 | 1.39519 ± 0.00068 | CCCCCCCC [octane] |

| Compound | mass density [1] | refractive index [2] |
| --- | --- | --- |
| Cc1ccccc1 [toluene] | 862.17 ± 0.11 kg/m3 | 1.49399 ± 0.00068 |
